Converted amounts (≈) assume the structure as drawn. Like-named read-outs stand apart in the source and are kept apart here.
Tests used:
E. coli K12 wt = test: MIC, standard broth microdilution assay; assay type: cell-based; conditions: LB broth, 10^5 cells per well, 1 mM IPTG
Experimental: (§1) The ASKA strains of interest are validated for functional expression of the enzyme. If the protein is not expressed from a given expression vector the ORF is recloned. A strain overexpressing the activating enzyme from the ASKA library is then tested with the hit compound. If the hit has greater activity against this overexpressing strain as compared to the wild type, this indicates a prodrug. The test is performed in a standard broth microdilution assay for MIC determination. Hits with the lowest wild type MIC are then examined.
(§2) Cells were tested in a standard broth microdilution assay, inoculating 10^5 cells per well of a microtiter plate in LB broth. Overexpression and deletion strains were compared to the appropriate isogenic wild type. IPTG was added at 1 mM to growth medium. Experiments involving nfnB and nfsA strains were performed under anaerobic conditions.

[1] = system: E. coli K12 overexpressing activating enzyme; test: MIC, standard broth microdilution assay, overexpression strains; assay type: cell-based
Experimental: as §1, §2

[2] = system: E. coli K12 Δactivating enzyme; test: MIC, standard broth microdilution assay, deletion strains; assay type: cell-based; conditions: Escherichia coli, anaerobic conditions
Experimental: as §1, §2

[3] = system: E. coli K12 ΔtolC overexpressing activating enzyme; test: MIC, standard broth microdilution assay, tolC deletion (MDR efflux); assay type: cell-based
Source text: Prodrugs are activated by activating enzymes into reactive molecules that bind to their targets, creating an irreversible sink. This may lead to insensitivity of the overall process to MDR efflux. In order to test this possibility, an E. coli K12 with a deletion in tolC coding for the outer membrane porin that is a component of the transenvelope MDRs was utilized (Li (2004) Drugs 64:159-204). This strain is highly sensitive to antibiotics (Tegos et al. (2002) Antimicrob. Agents Chemother. 46:3133-3141). […] The substrate specificity of AcrAB is remarkably broad, and includes essentially all small molecular weight amphipathic compounds. The AcrAB substrates include anions (SDS, fatty acids, bile acids), neutral compounds (macrolides, chloramphenicol, tetracyclines) and cations or compounds that can form cations (acridine, quaternary compound antiseptics, fluoroquinolones). AcrAB can extrude a natural broad spectrum antibiotics that evolved for good penetration, chloramphenicol and tetracycline; and also extrude synthetic broad-spectrums, the fluoroquinolones.
as §2

[4] = system: wild type bacterial strain (E. coli), stationary state; test: Dose-dependent killing of stationary state cells, plating and colony count; assay type: cell-based; conditions: anaerobic, 6 hours incubation, biphasic killing
Experimental: FIG. 10 is a graphical representation of the dose-dependent killing of E. coli by metronidazole. Stationary phase cells grown in LB medium in the presence of 1 mM IPTG under anaerobic conditions were challenged for 6 hrs with increasing concentrations of metronidazole and then plated on LB agar plates.
The killing ability of metronidazole was examined. The wild type bacterial strain was grown to stationary state under anaerobic conditions, and dose-dependent killing after incubation with metronidazole for 6 hours was detected by plating and colony count (FIG. 10). […] This is the first observation of a sterilizing activity of an antibiotic against a stationary state bacterial population. Previously, it was only possible to kill persisters and sterilize an infection with peracetic acid (FIG. 2); (Spoering et al. (2001) J. Bacteriol. 183:6746-6751).

[5] = system: strain overexpressing the activating enzyme, NfnB or NfsA; test: as above; assay type: cell-based, E. coli; conditions: for sterilization of the population: nfnB^+ strain, limit of detection 6 logs of killing, <10 cells/ml
E. coli K12 = test: Growth/no growth control wells (Z′-factor), OD600; assay type: cell-based
Experimental: The general procedure to establish the Z′-factor was tested. Since the output of the screening is a typical growth/no growth assay, this was performed by comparing growth in control wells to those containing a model antimicrobial, ciprofloxacin at 30 μg/ml. E. coli K12 were cultured in LB medium, and exponentially-growing cells were dispensed at 10^6/ml in 384-well microtiter plates, 30 μl/well. Six plates were used in this experiment. Ciprofloxacin was added to half of the wells (3 μl in LB, bringing the final volume to 33 μl). After an overnight incubation at 37 C, the OD600 of the plates were read, and the values of each well were used to calculate Z′-factor: Z′=1−(3SD++3SD−)/IAve+−Ave−I, where: SD+=positive control standard deviation; SD−=negative control standard deviation; Ave+=positive control average; and Ave−=negative control average). The following table for Z′-factor interpretation was used:
Before beginning the screen, a Z′-test was run. This was conducted by comparing growth in negative control wells to those with the prodrug AZT at 5 μg/ml. E. coli K12 cells were cultured in LB medium, and exponentially-growing cells were dispensed at 10^5/ml in 384-well microtiter plates, 30 μl/well. Four plates were used in this experiment. After an overnight incubation at 37° C., the OD600 of the plates were read, and the values of each well were used to calculate Z′-factor: […]

P. aeruginosa [6] = test: Killing of logarithmic, stationary and biofilm cultures, colony count; assay type: cell-based; conditions: for percentage of live cells: 5 μg/ml, 6 hrs
Experimental: Persister cells in planktonic and biofilm populations are characterized for their antibiotic sensitivity in this example. Several bactericidal antimicrobials were chosen to test the resistance of P. aeruginosa to killing—ofloxacin, a fluoroquinolone; tobramycin, an aminoglycoside; carbenicillin, a β-lactam; and peracetic acid, a disinfectant oxidant (Spoering et al. (2001) J. Bacteriol. 183:6746-6751). Biofilms were grown essentially by the method of Ceri (Ceri et al. (1999) J. Clin. Microbiol. 37:1771-1776) and as described in Brooun et al. (2000) Antimicrob. Agents Chemother. 44:640-646. The device used for biofilm formation is a platform carrying 96 polystyrene pegs that fit in a microtiter plate. Preformed biofilms were incubated in the presence of an antimicrobial agent, and survival was measured after disrupting the biofilms by colony count.
Logarithmic state, stationary and biofilm cultures were challenged with carbenicillin. Carbenicillin is a bactericidal antibiotic that, similarly to most β-lactams, only kills rapidly growing cells (Tuomanen et al. (1986) Scand. J. Gastroenterol. Suppl:10-14). […] The amount of killing of logarithmic cells approached a plateau at concentrations above 1.67×MIC, indicating the presence of a persister subpopulation. These 0.1% cells in the rapidly growing logarithmic culture were invulnerable to killing by carbenicillin at 600 μg/ml.
Unlike carbenicillin, ofloxacin can kill non-growing cells (Brooun et al. (2000) Antimicrob. Agents Chemother. 44:640-646). Logarithmic, stationary and biofilm cultures were challenged with ofloxacin over a wide range of concentrations, from 1×MIC (0.5 μg/ml) to 30×MIC (15 μg/ml). After a 6 hrs incubation time with the antibiotic, viability was determined by colony count. The majority of cells in the three populations examined were killed at low concentrations of ofloxacin (FIG. 3B). The killing in all three cultures was distinctly biphasic, indicating the presence of persister cells. The levels of persisters were dramatically higher in the dense stationary planktonic and biofilm cultures as compared to logarithmic cells. […] At 5 μg/ml ofloxacin, which is the clinically achievable concentration (Schulz et al. (1997) Pharmazie 52:895-911), the percentage of live cells was 0.001% in the logarithmic population, 0.1% in the biofilm and 2.5% in the stationary culture (FIG. 3B).
Tobramycin at 50 μg/ml (the maximal clinically achievable concentration is 10 μg/ml), (Schulz et al. (1997) Pharmazie 52:895-911) eliminated 90% of the biofilm cells, and the remaining population declined gradually with increasing amounts of the antibiotic. At high concentrations surviving persisters became apparent. Tobramycin was ineffective against stationary planktonic cells, apparently due to the dependence of killing of growth.
Peracetic acid, an oxidizing disinfectant, was used in order to test the ability of a sterilizing agent to act against persisters. […] Similar results showing biphasic killing, and high level of persisters in stationary and biofilm populations, also were obtained with S. aureus and E. coli (Keren et al. (2004) FEMS Microbiol. Lett. 230:13-18).

P. aeruginosa [7] = test: MIC; assay type: cell-based; conditions: Pseudomonas aeruginosa; 1×MIC
[8] = Schulz et al. (1997); cited from earlier work
[9] = system: E. coli K12 knockout pool (BacPool) and wild type; test: Prodrug screen, growth/no growth of BacPool knockout mix versus wild type; assay type: cell-based; conditions: compounds at about 46-50 μg/ml, OD600 after overnight incubation
Source text: A complete, ordered E. coli K12 knockout library of 4320 genes and predicted ORFs (the Keio library) was used (Baba et al. (2006). Mol. Systems Biol. 2:2006.0008). The knockouts were constructed using the Wanner method with a kanamycin cassette replacing the ORFs (Datsenko et al. (2000) Proc. Natl. Acad. Sci. USA 97:6640-6645). All strains of this library were combined in a mix BacPool1) for screening. This permitted screening of the library against all strains simultaneously, instead of screening a full industry-size library against each of the individual E. coli 4×10^3 knockout strains.
The library mix was prepared by first culturing all strains overnight in LB medium, and then adding equal aliquots into a tube. This material was then mixed, dispensed in vials and stored at −80° C. For the screen, one vial was thawed, diluted to 10^5 cells/ml in LB, and dispensed into 384 well microtiter plates. The compounds were added from DMSO stocks at a final concentration of 46 μg/ml. The same compounds were added to plates containing the wild type isogenic control. Screening was performed at the Harvard NSRB/NERCE screening facility that host a collection of 150,000 compounds (see Tables 1A and 1B). All screens at NSRB/NERCE were performed in duplicate, which strongly decreases the rate of false positives and negatives. For each tested molecule there are three possible scenarios when scoring for growth/no growth:
Growth in both the BacPool and K12 wells: indicates lack of antimicrobial activity;
Growth inhibition in both the BacPool and K12 wells: a possible antibiotic (direct activity) or generally toxic compound is present, but is not a prodrug; or
Growth of a BacPool well and no growth of the K12 well: a prodrug hit.
After an overnight incubation of plates at 37° C., the plates were read at OD600. Compounds that had no effect on the growth of the mix and inhibited the growth of the wild type were recorded as hits. The wells with growth indicated a prodrug hit that is not converted into a drug by a particular deletion mutant in the mix. The mutant strain is then identified in a secondary screen (see Example 2).
Yet another screen was performed on 147,500 compounds, using the protocol described below. […]
An E. coli KanR culture was grown in LB broth containing 50 μg/ml Kanamycin for 20 hrs at 37° C. in a shaking incubator. […] The plates were then incubated for 20 hrs at 37° C., and then the plates were read for Optical Density at 600 nm and were scored for growth/no growth. […]
Hits were identified by calculating the % of inhibition of growth of E. coli measured by OD600. The data were analyzed as follows: negative controls (N), positive controls (P), and compounds (X) ODs were separately averaged and the resulting means were used to calculate % of inhibition of E. coli growth: […]

Compound: Cc1ncc([N+](=O)[O-])n1CCO [Metronidazole]
- MIC (E. coli K12 wt; Escherichia coli, K12WT, read-out: MIC): > 500 µg/mL
- MIC (E. coli K12 wt): 563 µg/mL (≈ 3290 µM)
- sensitivity of the overexpression strain as compared to the wild type control ([1]; E. coli overexpressing NfnB): greater than 50 fold
- MIC ([1]; Escherichia coli): 8.8 µg/mL (≈ 51.4 µM)
- MIC ([1]; nfnB^+ overexpressing strain, 1 mM IPTG, anaerobic conditions): nfnB^+ 8.8 μg/ml
- MIC ([1]; nfsA^+ overexpressing strain, 1 mM IPTG, anaerobic conditions): nfsA^+ 8.8 μg/ml
- MIC ([1]; nfsA^+ overexpressing strain, 1 mM IPTG, anaerobic conditions, listed as metronidazole): 8.8 µg/mL (≈ 51.4 µM)
- MIC ([2]; nfnB^− deletion strain): 1120 µg/mL (≈ 6570 µM)
- MIC ([2]; nfsA^− deletion strain): 2250 µg/mL (≈ 13100 µM)
- MIC ([3]; Escherichia coli): 8.8 µg/mL (≈ 51.4 µM)
- MIC ([3]; ΔtolC, nfsA^+ overexpressing strain): nfsA^+ 8.8 μg/ml
- tolerant persister cells [4]: about 1%
- sterilization of the population [5]: completely “sterilized”
- sterilization of the population ([5]; listed as metronidazole): complete sterilization
- surviving persisters ([5]; strain overexpressing NfnB or NfsA, stationary state, 6 hours): no surviving persisters were detected

Compound: O=C(O)c1cn(C2CC2)c2cc(N3CCNCC3)c(F)cc2c1=O [ciprofloxacin]
- growth in wells with antibiotic (E. coli K12; 30 μg/ml, overnight at 37 C): no case of substantial growth

Compound: CC1COc2c(N3CCN(C)CC3)c(F)cc3c(=O)c(C(=O)O)cn1c23 (stereo not shown) [ofloxacin]
- percentage of live cells (P. aeruginosa [6]; biofilm): 0.1%
- percentage of live cells (P. aeruginosa [6]; logarithmic population): 0.001%
- percentage of live cells (P. aeruginosa [6]; stationary culture): 2.5%
- MIC (P. aeruginosa [7]): 0.5 µg/mL (≈ 1.38 µM)
- (maximal) clinically achievable concentration [8]: 5 µg/mL

Compound: NC[C@H]1O[C@H](O[C@H]2[C@H](O)[C@@H](O[C@H]3O[C@H](CO)[C@@H](O)[C@H](N)[C@H]3O)[C@H](N)C[C@@H]2N)[C@H](N)C[C@@H]1O [tobramycin]
- biofilm cells eliminated (P. aeruginosa [6]; biofilm, 50 μg/ml): 90%
- logarithmic persisters (P. aeruginosa [6]; logarithmic cells, 1 to 1500 μg/ml): no logarithmic persisters were detected
- killing of stationary cells (P. aeruginosa [6]; stationary planktonic cells): ineffective
- MIC (P. aeruginosa [7]): 1 µg/mL (≈ 2.14 µM)
- (maximal) clinically achievable concentration [8]: 10 µg/mL

Compound: Cc1cn([C@H]2C[C@H](N=[N+]=[N-])[C@@H](CO)O2)c(=O)[nH]c1=O [zidovudine]
- screen outcome (prodrug hit / direct activity) [9]: prodrug hits
- inhibition of E. coli growth (E. coli K12; positive control at 5 μg/ml): complete inhibition
